The supplement of paper PMC9701192
± gives the uncertainty stated by the source.

What was measured:
Assay in all cases: mass response relative to vehicle control (EMD distance of treated vs reference mass distribution minus control baseline) (% of mean reference cell mass); higher = larger drug-induced change in single-cell mass distribution (stronger response)
[1] = tested on: PA-TU-8902
Protocol: (§1)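 Cancer cell lines were treated in vitro with drugs at the listed doses (about 24 h; 0.25% DMSO vehicle). Single-cell buoyant mass was measured on suspended microchannel resonator instruments with CNN image curation, 2500 cells per condition. Mass response is the Earth Mover's Distance to vehicle-treated reference cells as % of mean reference mass.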

[2] = tested on: H1666
Protocol: as §1

[3] = tested on: H929
Protocol: as §1

[4] = tested on: H2228
Protocol: as §1

[5] = tested on: MV-4-11
Protocol: as §1

[6] = tested on: HT-29
Protocol: as §1

[7] = tested on: A549
Protocol: as §1

[8] = tested on: KMS-12-PE
Protocol: as §1

`O=c1[nH]cc(F)c(=O)[nH]1` [Fluorouracil] was tested, and the mass response ([1]; 25 µM) was -2.58 ± 0.15, the mass response ([1]; 50 µM) was 1.92 ± 7 and the mass response ([1]; 0.0001 M) was 8.61 ± 5.8. It also gave a mass response ([1]; 0.00025 M) of 30.2 ± 2.5.

With `COC(=O)N[C@@H](C)CNc1nccc(-c2cn(C(C)C)nc2-c2cc(Cl)cc(NS(C)(=O)=O)c2F)n1` [Encorafenib] the mass response ([2]; 0.01 µM) was 1.22 ± 0.73, the mass response ([2]; 0.1 µM) was -0.00481 ± 0.44 and the mass response ([2]; 1 µM) was 11.9 ± 4.1. The mass response ([2]; 10 µM) was 20.6 ± 3.6.

`CC(C)C[C@H](NC(=O)[C@H](Cc1ccccc1)NC(=O)c1cnccn1)B(O)O` [Bortezomib] gave a mass response ([3]; 0.001 µM) of -0.979 ± 1.1, a mass response ([3]; 0.005 µM) of 24.1 ± 2.9 and a mass response ([3]; 0.025 µM) of 34.2 ± 4.2. The mass response ([3]; 0.05 µM) was 33.7 ± 4.1.

`COc1cc2nccc(Oc3ccc(NC(=O)C4(C(=O)Nc5ccc(F)cc5)CC4)cc3)c2cc1OC` [Cabozantinib] was tested, and the mass response ([4]; 0.01 µM) was 0.815 ± 0.96, the mass response ([4]; 0.1 µM) was 1.67 ± 0.69 and the mass response ([4]; 1 µM) was -1.71 ± 0.46. The mass response ([4]; 10 µM) was 15.5 ± 1.

`Cc1cc(Nc2ncc(Cl)c(Nc3ccccc3S(=O)(=O)C(C)C)n2)c(OC(C)C)cc1C1CCNCC1` [Ceritinib] showed a mass response ([4]; 0.01 µM) of 2.19 ± 0.97, a mass response ([4]; 0.1 µM) of 25.7 ± 7.5 and a mass response ([4]; 1 µM) of 27.4 ± 6.2. It also gave a mass response ([4]; 10 µM) of 61 ± 1.

`CN(C)C(=O)c1cc2cnc(Nc3ccc(N4CCNCC4)cn3)nc2n1C1CCCC1` [Ribociclib] showed a mass response ([3]; 0.1 µM) of 2.31 ± 0.72, a mass response ([3]; 1 µM) of 0.00401 ± 0.89 and a mass response ([3]; 10 µM) of 1.33 ± 1.2. For the same compound, the mass response ([3]; 50 µM) was 14.2 ± 3.9.

In the case of `CO[C@H]1C[C@@H]2CC[C@@H](C)[C@@](O)(O2)C(=O)C(=O)N2CCCC[C@H]2C(=O)O[C@H]([C@H](C)C[C@@H]2CC[C@@H](OCCO)[C@H](OC)C2)CC(=O)[C@H](C)/C=C(\C)[C@@H](O)[C@@H](OC)C(=O)[C@H](C)C[C@H](C)/C=C/C=C/C=C/1C` [Everolimus], the mass response ([1]; 0.5 µM) is reported as 8.53 ± 1.9, the mass response ([1]; 5 µM) is reported as 9.89 ± 5.3 and the mass response ([1]; 20 µM) is reported as 8.18 ± 4. It also gave a mass response ([1]; 50 µM) of 16.6 ± 7.

For `Nc1ccn([C@@H]2O[C@H](CO)[C@@H](O)[C@@H]2O)c(=O)n1` [Cytarabine], the mass response ([5]; 0.001 µM) was -1.03 ± 0.38, the mass response ([5]; 0.01 µM) was 2.01 ± 0.69 and the mass response ([5]; 0.1 µM) was 15 ± 1.3. It also gave a mass response ([5]; 1 µM) of 22.9 ± 0.31.

For `CCCS(=O)(=O)Nc1ccc(F)c(C(=O)c2c[nH]c3ncc(-c4ccc(Cl)cc4)cc23)c1F` [Vemurafenib], the mass response ([6]; 0.01 µM) was -0.111 ± 1.9, the mass response ([6]; 0.1 µM) was 2.67 ± 0.19 and the mass response ([6]; 1 µM) was 16.5 ± 2.6. The mass response ([6]; 10 µM) was 24.3 ± 2.1.

`CC(=O)Nc1cccc(-n2c(=O)n(C3CC3)c(=O)c3c(Nc4ccc(I)cc4F)n(C)c(=O)c(C)c32)c1` [Trametinib] gave a mass response ([6]; 0.01 µM) of 26.9 ± 6.7, a mass response ([6]; 0.1 µM) of 27.1 ± 3.4 and a mass response ([6]; 1 µM) of 23.5 ± 0.46. The mass response ([6]; 10 µM) was 24.4 ± 0.46.

With `CCc1cc2c(cc1N1CCC(N3CCOCC3)CC1)C(C)(C)c1[nH]c3cc(C#N)ccc3c1C2=O` [Alectinib] the mass response ([7]; 0.1 µM) was 3.04, the mass response ([7]; 0.5 µM) was 0.678 and the mass response ([7]; 1 µM) was 3.27. It also gave a mass response ([7]; 10 µM) of 24.8.

`CC1(C)CCC(CN2CCN(c3ccc(C(=O)NS(=O)(=O)c4ccc(NCC5CCOCC5)c([N+](=O)[O-])c4)c(Oc4cnc5[nH]ccc5c4)c3)CC2)=C(c2ccc(Cl)cc2)C1` [Venetoclax] gave a mass response ([8]; 0.005 µM) of 0.784 ± 4.6, a mass response ([8]; 0.05 µM) of 22.2 ± 0.87 and a mass response ([8]; 0.5 µM) of 35.5 ± 0.37. For the same compound, the mass response ([8]; 5 µM) was 39.9 ± 4.1.

`CC(C)(C)c1nc(-c2cccc(NS(=O)(=O)c3c(F)cccc3F)c2F)c(-c2ccnc(N)n2)s1` [Dabrafenib] gave a mass response ([6]; 0.01 µM) of 10.7 ± 9.3, a mass response ([6]; 0.1 µM) of 19.1 ± 5.2 and a mass response ([6]; 1 µM) of 24.3 ± 3.3. For the same compound, the mass response ([6]; 10 µM) was 16.9 ± 6.3.

In the case of `C[C@@H](Oc1cc(-c2cnn(C3CCNCC3)c2)cnc1N)c1c(Cl)ccc(F)c1Cl` [Crizotinib], the mass response ([7]; 0.01 µM) is reported as -1.1 ± 0.55, the mass response ([7]; 0.1 µM) is reported as -1.44 ± 0.16 and the mass response ([7]; 1 µM) is reported as 6.6 ± 1.6. The mass response ([7]; 10 µM) was 12.1 ± 0.61.

For `CNC(=O)c1ccc(-c2cnc3ncc(Cc4ccc5ncccc5c4)n3n2)cc1F` [Capmatinib], the mass response ([6]; 0.01 µM) was 1.15 ± 0.93, the mass response ([6]; 0.1 µM) was 1.02 ± 2.5 and the mass response ([6]; 1 µM) was 3.42 ± 3. It also gave a mass response ([6]; 10 µM) of 12.2 ± 4.3.

Compound `O=C(O)C(=O)O.[NH-][C@@H]1CCCC[C@H]1[NH-].[Pt+2]` [Oxaliplatin] has a mass response ([1]; 0.5 µM) of 5.04 ± 2.9, a mass response ([1]; 5 µM) of 1.26 ± 5 and a mass response ([1]; 25 µM) of 27.3 ± 9.2. It also gave a mass response ([1]; 50 µM) of 45.7 ± 3.4.

In the case of `CCN1CCN(Cc2ccc(Nc3ncc(F)c(-c4cc(F)c5nc(C)n(C(C)C)c5c4)n3)nc2)CC1` [Abemaciclib], the mass response ([3]; 0.05 µM) is reported as 13.7 ± 3.8, the mass response ([3]; 0.5 µM) is reported as 10.7 ± 3.7 and the mass response ([3]; 5 µM) is reported as 22.1 ± 2.2. For the same compound, the mass response ([3]; 20 µM) was 29.6 ± 1.8.

`CCc1c2c(nc3ccc(O)cc13)-c1cc3c(c(=O)n1C2)COC(=O)[C@]3(O)CC` [SN-38] showed a mass response ([6]; 0.01 µM) of 15.5 ± 0.51, a mass response ([6]; 0.1 µM) of 11.1 ± 2.3 and a mass response ([6]; 1 µM) of 10.6 ± 0.61. It also gave a mass response ([6]; 10 µM) of 18 ± 3.

`Nc1ccn([C@@H]2O[C@H](CO)[C@@H](O)C2(F)F)c(=O)n1` [Gemcitabine] showed a mass response ([1]; 0.002 µM) of 11.2 ± 4.4, a mass response ([1]; 0.02 µM) of 7.94 ± 0.91 and a mass response ([1]; 0.2 µM) of 5.91 ± 0.96. It also gave a mass response ([1]; 2 µM) of 15.9 ± 3.
